Columns and labels:
Type in all cases: biochemical
cathepsin B = target: T1, cathepsin B (Homo sapiens, UniProt P07858); assay: Cathepsin B enzyme inhibition in vitro (kinetic fluorescence assay); conditions: cathepsin B isolated from human liver vs calpain I
T1 construct: cathepsin B—isolated from human liver (Calbiochem #219362); purchased Calbiochem 219362; host or cells: human liver (tissue-derived)
Method: (§1) The following solutions and buffers were employed: • HBS (for 40 ml): 800 μl M HEPES; 2.16 ml 100 mM KCl; 4.8 ml 1M NaCl; 3.59 ml 5% glucose; 60 μl μM MgSO4; 400 μl 100 mM Na pyruvate, 28.19 ml water; pH 7.2-7.5. • lysis buffer (for 20 ml): 400 μl M Tris pH 8.2; 2.74 ml 1M NaCl; 520 μl 0.5M EDTA; 2 ml 10% triton X-100; 0.8 ml (=1:25) CompletePlus (1 tablet/2 ml H2O); 200 μl 100 mM Pefabloc; 13.34 ml water, pH 8.2. • TBST (10×) (for 1 l): 100 mM Tris (12.1 g); 1.5M NaCl (87 g); 1% Tween 20 (10 g), adjusted to pH 8. I Enzyme Inhibition In Vitro: • Testing for blockade of the corresponding enzymic activities was carried out by means of kinetic fluorescence assays (excitation 390 nm, emission 460 nm). • Apparent Ki values were calculated from the experimentally determined IC50 values by the Cheng-Prussoff relation assuming a reversible competitive enzyme inhibition. The Km values of the substrates used under the assay conditions indicated above were: 90 μM (Z-Phe-Arg-AMC, cathepsin B), 10 μM (Z-Gly-Pro-Arg-AMC, cathepsin K), 2 μM (Z-Phe-Arg-AMC, cathepsin L), and 30 μM (Z-Val-Val-Arg-AMC, cathepsin S). • The indicated Ki values are averages of the inhibition constants calculated on the basis of 2 to 4 independent dose-effect plots.
(§2) The following assays were used: • 1. Calpain I: • 20 nM calpain-I—isolated from human erythrocytes (Calbiochem #208713), 100 μM Suc-Leu-Tyr-AMC (Bachem #1-1355) as substrate in buffer with 62 mM imidazole, 0.3 mM CaCl2, 0.10% CHAPS, 0.05% BSA, 1 mM DTT at pH 7.3 and room temperature. • 2. Cathepsin B: • 0.25 nM cathepsin B—isolated from human liver (Calbiochem #219362), 100 μM Z-Phe-Arg-AMC (Bachem #I-1160) as substrate 50 mM MES, 2 mM EDTA, 0.05% Brij 35, 2.5 mM L-cysteine, pH 6.0, room temperature. • 3. Cathepsin K: • 3 nM cathepsin K—activated from recombinant human procathepsin K from E. coli (Calbiochem #342001), 10 μM Z-Gly-Pro-Arg-AMC (Biomol #P-142) as substrate in 50 mM MES, 2 mM EDTA, 0.05% Brij 35, 2.5 mM L-cysteine, pH 6.0, room temperature. • 4. Cathepsin L: • 1 nM cathepsin L—isolated from human liver (Calbiochem #219402), 2 μM Z-Phe-Arg-AMC (Bachem #1-1160) as substrate in 50 mM MES, 2 mM EDTA, 0.05% Brij 35, 2.5 mM L-cysteine, pH 6.0, room temperature. • 5. Cathepsin S: • 0.5 nM recombinant human cathepsin S from E. coli (Calbiochem #219343), 20 μM Z-Val-Val-Arg-AMC (Bachem #1-1540) as substrate in 50 mM MES, 2 mM EDTA, 0.05% Brij 35, 2.5 mM L-cysteine, pH 6.0, room temperature. • The results of the in vitro determination are indicated in Table 1. The following abbreviations are used in Table 1: • The “Calpain activity” column, ++ stands for a calpain Ki (Ki(calpain)) of ≦40 nM and + means: 40 nM<Ki(Calpain)≦100 nM. • The “Sel. cat. B” column indicates the Ki(cathepsin B)/Ki(calpain) ratio. In this connection, ++ means a Ki(cathepsin B)/Ki(calpain) ratio of ≧30 and + means 10≦Ki(cathepsin B)/Ki(calpain)<30. • The “Sel. cat. K” column indicates the Ki(cathepsin K)/Ki(calpain) ratio. In this connection, ++ means a Ki(cathepsin K)/Ki(calpain) ratio of ≧30 and + means 10≦Ki(cathepsin K)/Ki(calpain)<30. • The “Sel. cat. L” column indicates the Ki(cathepsin L)/Ki(calpain) ratio. In this connection, ++ means a Ki(cathepsin L)/Ki(calpain) ratio of ≧50 and + means 30≦Ki(cathepsin L)/Ki(calpain)<50. • The “Sel. cat. S” column indicates the Ki(cathepsin S)/Ki(calpain) ratio. In this connection, ++ means a Ki(cathepsin S)/Ki(calpain) ratio of ≧100 and + means 50≦Ki(cathepsin S)/Ki(calpain)<100.

cathepsin K = target: T2, cathepsin K (Homo sapiens, UniProt P43235); assay: Cathepsin K enzyme inhibition in vitro (kinetic fluorescence assay); conditions: cathepsin K activated from recombinant human procathepsin K vs calpain I
T2 construct: purchased Calbiochem 342001; host or cells: E. coli
T2 sequence (P43235 115-329): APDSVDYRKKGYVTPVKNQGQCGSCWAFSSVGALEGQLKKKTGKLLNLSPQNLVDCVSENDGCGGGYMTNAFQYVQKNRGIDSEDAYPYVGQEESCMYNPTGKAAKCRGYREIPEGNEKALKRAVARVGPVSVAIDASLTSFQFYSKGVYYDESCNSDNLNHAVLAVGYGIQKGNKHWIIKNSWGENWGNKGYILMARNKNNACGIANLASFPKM
Method: as §1, §2

cathepsin L = target: T3, cathepsin L (Homo sapiens, UniProt P07711); assay: Cathepsin L enzyme inhibition in vitro (kinetic fluorescence assay); conditions: cathepsin L isolated from human liver vs calpain I
T3 construct: cathepsin L—isolated from human liver (Calbiochem #219402); purchased Calbiochem 219402; host or cells: human liver (tissue-derived)
How it was run: (§3)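 Kinetic fluorescence (ex 390/em 460 nm) at room temperature in 50 mM MES, 2 mM EDTA, 0.05% Brij 35, 2.5 mM L-cysteine, pH 6.0. Cathepsin B (liver, 0.25 nM) with 100 μM Z-Phe-Arg-AMC; cathepsin L (liver, 1 nM) with 2 μM Z-Phe-Arg-AMC; recombinant E. coli cathepsin S (0.5 nM) with 20 μM Z-Val-Val-Arg-AMC. Ki via Cheng-Prusoff.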

cathepsin S = target: T4, cathepsin S (Homo sapiens, UniProt P25774); assay: Cathepsin S enzyme inhibition in vitro (kinetic fluorescence assay); conditions: recombinant human cathepsin S vs calpain I
T4 construct: purchased Calbiochem 219343; host or cells: E. coli
How it was run: as §3

T4 sequence (P25774 115-331): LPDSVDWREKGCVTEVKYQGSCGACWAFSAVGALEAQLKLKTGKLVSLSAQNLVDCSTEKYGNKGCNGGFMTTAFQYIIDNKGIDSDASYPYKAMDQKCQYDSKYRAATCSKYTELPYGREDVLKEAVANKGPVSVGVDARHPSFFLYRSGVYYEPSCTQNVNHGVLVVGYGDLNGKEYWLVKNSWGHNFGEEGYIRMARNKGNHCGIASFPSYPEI
T3 sequence (P07711 114-333): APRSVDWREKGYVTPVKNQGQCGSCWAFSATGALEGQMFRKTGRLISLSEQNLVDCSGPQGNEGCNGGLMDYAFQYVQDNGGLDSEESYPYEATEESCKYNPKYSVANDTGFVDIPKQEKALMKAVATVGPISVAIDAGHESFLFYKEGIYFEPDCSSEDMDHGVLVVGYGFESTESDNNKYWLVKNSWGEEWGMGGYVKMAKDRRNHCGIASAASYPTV

## NC(=O)C(=O)C(Cc1ccccc1)NC(=O)c1cccnc1-n1ccc(-c2ccccc2)n1 (centres unmarked) [Example 5, N-(3-Amino-1-benzyl-2,3-dioxopropyl)-2-(3-phenyl-1H-pyrazol-1-yl)nicotinamide]
Cathepsin B
  Sel cat. B: Ki(cathepsin B)/Ki(calpain) ratio: + (+ means 10≦Ki(cathepsin B)/Ki(calpain)<30)
Cathepsin K
  Sel cat. K: Ki(cathepsin K)/Ki(calpain) ratio: + (+ means 10≦Ki(cathepsin K)/Ki(calpain)<30)
Cathepsin L
  Sel cat. L: Ki(cathepsin L)/Ki(calpain) ratio: ++ (++ means a Ki(cathepsin L)/Ki(calpain) ratio of ≧50)
Cathepsin S
  Sel cat. S: Ki(cathepsin S)/Ki(calpain) ratio: ++ (++ means a Ki(cathepsin S)/Ki(calpain) ratio of ≧100)

## NC(=O)C(=O)C(Cc1ccccc1)NC(=O)c1cccnc1-n1ccc(-c2ccccn2)n1 (centres unmarked) [Example 35, N-(3-Amino-1-benzyl-2,3-dioxopropyl)-2-(3-pyridin-2-yl-1H-pyrazol-1-yl)nicotinamide]
Cathepsin B
  Sel cat. B: Ki(cathepsin B)/Ki(calpain) ratio: + (+ means 10≦Ki(cathepsin B)/Ki(calpain)<30)
Cathepsin K
  Sel cat. K: Ki(cathepsin K)/Ki(calpain) ratio: + (+ means 10≦Ki(cathepsin K)/Ki(calpain)<30)
Cathepsin L
  Sel cat. L: Ki(cathepsin L)/Ki(calpain) ratio: ++ (++ means a Ki(cathepsin L)/Ki(calpain) ratio of ≧50)
Cathepsin S
  Sel cat. S: Ki(cathepsin S)/Ki(calpain) ratio: ++ (++ means a Ki(cathepsin S)/Ki(calpain) ratio of ≧100)

## NC(=O)C(=O)C(Cc1ccccc1)NC(=O)c1cccnc1-n1ccc(-c2ccc(F)cc2)n1 (centres unmarked) [Example 38, N-(3-Amino-1-benzyl-2,3-dioxopropyl)-2-[3-(4-fluorophenyl)-1H-pyrazol-1-yl]nicotinamide]
Cathepsin B
  Sel cat. B: Ki(cathepsin B)/Ki(calpain) ratio: + (+ means 10≦Ki(cathepsin B)/Ki(calpain)<30)
Cathepsin K
  Sel cat. K: Ki(cathepsin K)/Ki(calpain) ratio: + (+ means 10≦Ki(cathepsin K)/Ki(calpain)<30)
Cathepsin L
  Sel cat. L: Ki(cathepsin L)/Ki(calpain) ratio: ++ (++ means a Ki(cathepsin L)/Ki(calpain) ratio of ≧50)
Cathepsin S
  Sel cat. S: Ki(cathepsin S)/Ki(calpain) ratio: ++ (++ means a Ki(cathepsin S)/Ki(calpain) ratio of ≧100)

## COc1ccc(-c2ccn(-c3ncccc3C(=O)NC(Cc3ccccc3)C(=O)C(N)=O)n2)cc1 (centres unmarked) [Example 48, N-(3-Amino-1-benzyl-2,3-dioxopropyl)-2-[3-(4-methoxyphenyl)-1H-pyrazol-1-yl]nicotinamide]
Cathepsin B
  Sel cat. B: Ki(cathepsin B)/Ki(calpain) ratio: + (+ means 10≦Ki(cathepsin B)/Ki(calpain)<30)
Cathepsin K
  Sel cat. K: Ki(cathepsin K)/Ki(calpain) ratio: + (+ means 10≦Ki(cathepsin K)/Ki(calpain)<30)
Cathepsin L
  Sel cat. L: Ki(cathepsin L)/Ki(calpain) ratio: ++ (++ means a Ki(cathepsin L)/Ki(calpain) ratio of ≧50)
Cathepsin S
  Sel cat. S: Ki(cathepsin S)/Ki(calpain) ratio: ++ (++ means a Ki(cathepsin S)/Ki(calpain) ratio of ≧100)

## NC(=O)C(=O)C(Cc1ccc(Cl)cc1)NC(=O)c1cccnc1-n1ccc(-c2ccccc2)n1 (centres unmarked) [Example 50, N-[3-Amino-1-(4-chlorobenzyl)-2,3-dioxopropyl]-2-(3-phenyl-1H-pyrazol-1-yl)nicotinamide]
Cathepsin B
  Sel cat. B: Ki(cathepsin B)/Ki(calpain) ratio: + (+ means 10≦Ki(cathepsin B)/Ki(calpain)<30)
Cathepsin K
  Sel cat. K: Ki(cathepsin K)/Ki(calpain) ratio: + (+ means 10≦Ki(cathepsin K)/Ki(calpain)<30)
Cathepsin L
  Sel cat. L: Ki(cathepsin L)/Ki(calpain) ratio: + (+ means 30≦Ki(cathepsin L)/Ki(calpain)<50)
Cathepsin S
  Sel cat. S: Ki(cathepsin S)/Ki(calpain) ratio: + (+ means 50≦Ki(cathepsin S)/Ki(calpain)<100)

## NC(=O)C(=O)C(Cc1ccccc1)NC(=O)c1cccnc1-n1ccc(-c2ccccc2Cl)n1 (centres unmarked) [Example 54, N-(3-Amino-1-benzyl-2,3-dioxopropyl)-2-[3-(2-chlorophenyl)-1H-pyrazol-1-yl]nicotinamide]
Cathepsin B
  Sel cat. B: Ki(cathepsin B)/Ki(calpain) ratio: ++ (++ means a Ki(cathepsin B)/Ki(calpain) ratio of ≧30)
Cathepsin K
  Sel cat. K: Ki(cathepsin K)/Ki(calpain) ratio: ++ (++ means a Ki(cathepsin K)/Ki(calpain) ratio of ≧30)
Cathepsin L
  Sel cat. L: Ki(cathepsin L)/Ki(calpain) ratio: ++ (++ means a Ki(cathepsin L)/Ki(calpain) ratio of ≧50)
Cathepsin S
  Sel cat. S: Ki(cathepsin S)/Ki(calpain) ratio: ++ (++ means a Ki(cathepsin S)/Ki(calpain) ratio of ≧100)

## NC(=O)C(=O)C(Cc1ccccc1)NC(=O)c1cccnc1-n1ccc(-c2cccs2)n1 (centres unmarked) [Example 55, N-(3-Amino-1-benzyl-2,3-dioxopropyl)-2-[3-(2-thienyl)-1H-pyrazol-1-yl]nicotinamide]
Cathepsin B
  Sel cat. B: Ki(cathepsin B)/Ki(calpain) ratio: + (+ means 10≦Ki(cathepsin B)/Ki(calpain)<30)
Cathepsin K
  Sel cat. K: Ki(cathepsin K)/Ki(calpain) ratio: + (+ means 10≦Ki(cathepsin K)/Ki(calpain)<30)
Cathepsin L
  Sel cat. L: Ki(cathepsin L)/Ki(calpain) ratio: ++ (++ means a Ki(cathepsin L)/Ki(calpain) ratio of ≧50)
Cathepsin S
  Sel cat. S: Ki(cathepsin S)/Ki(calpain) ratio: ++ (++ means a Ki(cathepsin S)/Ki(calpain) ratio of ≧100)

## NC(=O)C(=O)C(Cc1ccccc1)NC(=O)c1cccnc1-n1ccc(-c2cccc(N3CCOCC3)c2)n1 (centres unmarked) [Example 58, N-(3-Amino-1-benzyl-2,3-dioxopropyl)-2-[3-(3-morpholin-4-ylphenyl)-1H-pyrazol-1-yl]nicotinamide]
Cathepsin B
  Sel cat. B: Ki(cathepsin B)/Ki(calpain) ratio: + (+ means 10≦Ki(cathepsin B)/Ki(calpain)<30)
Cathepsin K
  Sel cat. K: Ki(cathepsin K)/Ki(calpain) ratio: + (+ means 10≦Ki(cathepsin K)/Ki(calpain)<30)
Cathepsin L
  Sel cat. L: Ki(cathepsin L)/Ki(calpain) ratio: ++ (++ means a Ki(cathepsin L)/Ki(calpain) ratio of ≧50)
Cathepsin S
  Sel cat. S: Ki(cathepsin S)/Ki(calpain) ratio: ++ (++ means a Ki(cathepsin S)/Ki(calpain) ratio of ≧100)

## COc1ccc(OC)c(-c2ccn(-c3ncccc3C(=O)NC(Cc3ccccc3)C(=O)C(N)=O)n2)c1 (centres unmarked) [Example 151, N-[3-Amino-2,3-dioxo-1-(phenylmethyl)propyl]-2-{3-[2,5-bis(methyloxy)phenyl]-1H-pyrazol-1-yl}pyridine-3-carboxamide]
Cathepsin B
  Sel cat. B: Ki(cathepsin B)/Ki(calpain) ratio: ++ (++ means a Ki(cathepsin B)/Ki(calpain) ratio of ≧30)
Cathepsin K
  Sel cat. K: Ki(cathepsin K)/Ki(calpain) ratio: ++ (++ means a Ki(cathepsin K)/Ki(calpain) ratio of ≧30)
Cathepsin L
  Sel cat. L: Ki(cathepsin L)/Ki(calpain) ratio: ++ (++ means a Ki(cathepsin L)/Ki(calpain) ratio of ≧50)

Reference: patent publication US7799809B2, “Carboxamide compounds and their use as calpain inhibitors” (Abbott GmbH & Co. KG, priority 2006, dated 2010)
